Results as given in PMC10354055, “An optimized Nurr1 agonist provides disease-modifying effects in Parkinson’s disease models” (Nature Communications, 2023).
“And” between values parts separate entries of the source, which are not always exact repeats. Equal entries are not always repeated.

Legend:
[1] = tested on: MPTP-induced male mice; assay: Dopamine ELISA in SN and STR, MPTP-induced mice; assay type: in vivo, mouse; conditions: for DA: individual animals
Method: (§1) MPTP (Sigma-Aldrich) was intraperitoneally (i.p.) injected (30 mg/kg) for 5 days (Day 1-5). […] To test dyskinetic involuntary behavior, an L-DOPA injected group was included, which received 50 mg/kg of L-DOPA and 15 mg/kg of benserazide (Sigma-Aldrich) (i.p.) for 16 days (Day 1–16). All compounds were administered 6 h post-MPTP injection to avoid any effect of compounds on the MPTP metabolism in the brain. Motor and non-motor related behavior tests were performed on the following days as described in Fig. 4a in an assessor- and observer-blinded fashion. Pre-training and baseline setup for motor-related behaviors were performed 3 days prior to the injections. Mice were sacrificed and subjected to immunohistochemistry. Mice were housed at the Animal Care Facilities of McLean Hospital under a 12-h light/12-h dark cycle, ambient temperature and humidity. Animals were handled in accordance with McLean Hospital’s Institutional Animal Care and Use Committee (Protocol #: 2015N000002) and followed National Institutes of Health guidelines.
(§2) For MPTP-induced mice, the left hemisphere of each group (n = 5) was used for analysis and compared to the vehicle-treated group (VEH). For AAV-αSyn-injected mouse model, the viral vector injected side (left hemisphere; ipsilateral) of each group (n = 3) was compared to the non-injected side (right hemisphere; contralateral).

[2] = tested on: AAV-αSyn-induced male mice; assay: Cylinder test, AAV-αSyn-induced PD model mice; assay type: in vivo, mouse; conditions: αSynWT and αSynA53T mice; CQ 40, 4A7C-301 5 mg/kg/day i.p.
Text: (§3) Adeno-associated viruses (AAVs) expressing GFP only or αSyn (wild-type or A53T) were kindly provided by Dr. Yoon Seong Kim from the University of Central Florida. Recombinant AAV vectors were produced using modified pAAV-IRES-hrGFP (Agilent) to express wild-type and mutant human αSyn under control of the CMV promoter. Viral particles (AAV2) were produced at the University of Iowa Viral Vector Core according to standard operating procedures (https://medicine.uiowa.edu/vectorcore/). […] AAV vectors were delivered into the substantia nigra unilaterally by stereotaxic surgery.
(§4) Mice were placed in a transparent plastic cylinder (15.5 cm high, 12.7 cm diameter) with a mirror behind it. Spontaneous activity was recorded and measured as counting the number of rearing events for 3 min session. A rear was considered only when the mouse touched the wall of the cylinder with its forelimb paws while standing on its hindlimbs (vertical movement) to count meaningful physiological movements.

[3] = tested on: MPTP-induced male mice; assay: Cylinder test, MPTP-induced PD model mice; assay type: in vivo, mouse
Method: as §1, §4

[4] = tested on: AAV-αSyn-induced male mice; assay: IHC/stereology of TH+ and NeuN+ neurons and TH+ fibers, AAV-αSyn-induced mice; assay type: in vivo, mouse
Text: as §3
Images were acquired using a KEYENCE microscope and quantified as the number or optical density of immunoreactive cells using ImageJ software.
The numbers of TH^+ DA neurons, NeuN^+ neurons, pS129 αSyn^+ cells in the SN and Iba-1^+ microglia in the SN and striatum were stereologically counted in six coronal sections (30 µm thickness) taken every 6th section (180 µm intervals) for each brain. The boundaries of the SN and striatum were delimited at low magnification (4X) to estimate each total area. Immunoreactive cells were counted with images taken at high magnification (×40) by a single blinded investigator. The group mean of the total number of immunoreactive cells from each brain was transformed as percentage of the number in the control group (%). For AAV-αSyn-induced mice, the group mean of the total number of cells in the ipsilateral side was transformed as a percentage of that observed in the contralateral side.

[5] = tested on: MN9D cells; assay: Cell viability, MTT reduction, MPP+-treated MN9D cells; assay type: cell-based, mouse
Method: Cell viability was determined using 3-(4,5-dimethylthiazol-2-yl)-2,5-diphenyltetrazolium bromide (MTT) as previously described[60]. Briefly, cells were incubated with 5 mg/ml of MTT (Sigma-Aldrich) solution for 3.5 h at 37 °C. MTT formazan crystals were dissolved in 10 times the volume of MTT solvent (4 mM HCl and 0.1% Nonidet P-40 in isopropanol) and the absorbance from the generated blue formazan was measured at 570 nm after 15 min incubation at room temperature. Cell viability was calculated as a percentage (%) of MTT reduction relative to vehicle control.

[6] = tested on: AAV-αSyn-induced male mice; assay: Dopamine ELISA in SN and STR, AAV-αSyn-injected mice; assay type: in vivo, mouse
Text: as §3, §2

[7] = biological target: T1, Nurr1-LBD (Mus musculus, UniProt Q06219); assay: Luciferase reporter assay, Nurr1-LBD, N27-A cells; assay type: cell-based
T1 construct: transfected with pCMV-fNurr1, pGAL-Nurr1(LBD), pGAL-Nor1(LBD) or pGAL-Nur77(LBD) and reporter construct; expressed in transfected cells; host or cells: SK-N-BE(2)C (human neuroblastoma), N27-A (rat dopaminergic), MN9D (murine dopaminergic)
T1 sequence (Q06219 360-595 limits assumed): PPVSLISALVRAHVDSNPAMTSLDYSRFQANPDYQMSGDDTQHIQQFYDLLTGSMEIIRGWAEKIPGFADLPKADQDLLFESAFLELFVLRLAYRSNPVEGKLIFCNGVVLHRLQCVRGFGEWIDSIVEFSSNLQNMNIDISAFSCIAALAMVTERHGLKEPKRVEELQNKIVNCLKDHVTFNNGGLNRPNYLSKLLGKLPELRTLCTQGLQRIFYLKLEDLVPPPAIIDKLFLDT
Text: Nurr1 transactivity was normalized to β-galactosidase activity.

[8] = tested on: MN9D cells; assay: Cytotoxicity, LDH release, MPP+-treated MN9D cells; assay type: cell-based, mouse
Method: Cells were transfected with Nurr1 subcloned into pcDNA3.1 vector[23] for Nurr1 overexpression (OE). […] Nurr1 OE or KD by transfection was analyzed by Western blot.
Cellular oxidative stress was detected using the DCFDA Cellular ROS Assay Kit (Abcam) according to the manufacturer’s protocol. Briefly, cells seeded in black clear bottom 96 well plate were stained with DCFDA solution (20 µM) for 45 min at 37 °C. […] Cytotoxicity was determined by measuring lactate dehydrogenase (LDH) release into the culture medium using a LDH cytotoxicity detection kit (Roche)[33]. Absorbance was measured at 490 nm with a microplate reader and cytotoxicity was calculated as a percentage (%) relative to 1% TritonX-100 control. Cell viability was determined using 3-(4,5-dimethylthiazol-2-yl)-2,5-diphenyltetrazolium bromide (MTT) as previously described. Briefly, cells were incubated with 5 mg/ml of MTT (Sigma-Aldrich) solution for 3.5 h at 37 °C. MTT formazan crystals were dissolved in 10 times the volume of MTT solvent (4 mM HCl and 0.1% Nonidet P-40 in isopropanol) and the absorbance from the generated blue formazan was measured at 570 nm after 15 min incubation at room temperature. Cell viability was calculated as a percentage (%) of MTT reduction relative to vehicle control.

## CCN1CCN(c2cc(N3CCN(CC)CC3)nc(NCCNc3ccnc4cc(Cl)ccc34)n2)CC1 [4A7C-301, N^1-(4,6-bis(4-ethylpiperazin-1-yl)pyrimidin-2-yl)-N^2-(7-chloroquinolin-4-yl)ethane-1,2-diamine]
[1]
  DA levels in the SN (in words): significantly restored
  DA levels in the STR (in words): significantly restored
[1]; Supplementary Figure S10b
  DA: 62.619 pg/mL and 53.876 pg/mL and 49.863 pg/mL and 62.002 pg/mL and 54.392 pg/mL
[1]; Supplementary Figure S10c
  DA: 384.546 pg/mL and 562.262 pg/mL and 361.203 pg/mL and 377.923 pg/mL and 404.591 pg/mL
[2]
  motor deficits, cylinder test (rearing) (in words): improved motor deficits
[3]; CQ 40, 4A7C-301 5, L-DOPA 50 mg/kg/day, i.p., 16 days
  motor function, cylinder test (in words): significantly rescued
[3]; Figure 4d, MPTP-induced mice, individual animal values
  Number of rearing: 34 and 51 and 29 and 33 and 22 and 71 and 46
[4]; αSynA53T-mice
  loss of TH+ and NeuN+ neurons and fibers (in words): significantly prevented
[4]; αSynWT-mice
  loss of TH+ and NeuN+ neurons and TH+ fibers (in words): partially prevented
[5]; Fig. S1f, with MPP+, conc. 0.1 µM, replicates
  MTT reduction (%): 55.1664% and 54.641% and 56.7426%
[5]; Fig. S1f, with MPP+, conc. 0.5 µM, replicates
  MTT reduction (%): 58.8441% and 58.3187% and 60.4203%
[5]; Fig. S1f, with MPP+, conc. 1 µM, replicates
  MTT reduction (%): 62.5219% (2×) and 61.4711%
[5]; Fig. S1f, with MPP+, conc. 5 µM, replicates
  MTT reduction (%): 60.9457% and 62.5219% and 63.0473%
[5]; Fig. S1f, with MPP+, conc. 10 µM, replicates
  MTT reduction (%): 61.9965% and 61.4711% and 63.0473%
[5]; Fig. S3c, with MPP+, 0.1 µM
  MTT reduction (%): 54.8913% and 57.0652% and 55.4348%
[5]; Fig. S3c, with MPP+, 0.5 µM
  MTT reduction (%): 59.2391% and 59.7826% and 60.3261%
[5]; Fig. S3c, with MPP+, 1 µM
  MTT reduction (%): 63.0435% and 64.1304% and 62.5%
[5]; Fig. S3c, with MPP+, 5 µM
  MTT reduction (%): 63.587% and 61.9565% and 64.6739%
[5]; Fig. S3c, with MPP+, 10 µM
  MTT reduction (%): 63.587% and 61.9565%
[5]; Fig. S3e, MPP+, Control, CQ 100 µM, 4A7C-301 1 µM
  MTT reduction (%): 68.2632% and 62.1053% and 68.2105% and 63.0526%
[5]; Fig. S3e, MPP+, Nurr1 KD, CQ 100 µM, 4A7C-301 1 µM
  MTT reduction (%): 31.8421% and 30.5263% and 31.5789% and 29.7368%
[5]; Fig. S3e, MPP+, Nurr1 OE, CQ 100 µM, 4A7C-301 1 µM
  MTT reduction (%): 85.4211% and 91.8947% and 89.4737% and 88.2632%
[6]; Supplementary Figure S10e, αSynA53T
  DA level (% of contralateral side): 52.259 % of contralateral side and 51.869 % of contralateral side and 51.727 % of contralateral side
[6]; Supplementary Figure S10e, αSynWT
  DA level (% of contralateral side): 78.777 % of contralateral side and 81.036 % of contralateral side and 79.879 % of contralateral side
[6]; Supplementary Figure S10f, αSynA53T
  DA level (% of contralateral side): 55.117 % of contralateral side and 54.305 % of contralateral side and 55.007 % of contralateral side
[6]; Supplementary Figure S10f, αSynWT
  DA level (% of contralateral side): 77.063 % of contralateral side and 74.376 % of contralateral side and 74.108 % of contralateral side
[6]; αSynA53T-mice
  DA levels (in words): increased
[6]; αSynWT-mice
  DA levels in the SN and STR (in words): significantly increased
[7]
  potency relative to CQ: approximately 50 times
[7]; Supplementary Fig. 1d,e
  EC50: ~200 nM
[8]; Fig. S1g, with MPP+, conc. 0.1 µM, replicates
  LDH release (%): 41.8716% and 42.3575% and 42.6815%
[8]; Fig. S1g, with MPP+, conc. 0.5 µM, replicates
  LDH release (%): 39.0371% and 39.604% and 39.28%
[8]; Fig. S1g, with MPP+, conc. 1 µM, replicates
  LDH release (%): 37.6198% and 37.0529% and 37.2958%
[8]; Fig. S1g, with MPP+, conc. 5 µM, replicates
  LDH release (%): 37.2149% and 37.0124% and 37.6198%
[8]; Fig. S1g, with MPP+, conc. 10 µM, replicates
  LDH release (%): 36.486% and 37.8628% and 37.3363%
[8]; Fig. S3f, MPP+, Control, CQ 100 µM, 4A7C-301 1 µM
  LDH release (%): 38.8915% and 36.4082% and 36.6047% and 41.8443%
[8]; Fig. S3f, MPP+, Nurr1 KD, CQ 100 µM, 4A7C-301 1 µM
  LDH release (%): 55.7866% and 55.7395% and 56.0212% and 56.0866%
[8]; Fig. S3f, MPP+, Nurr1 OE, CQ 100 µM, 4A7C-301 1 µM
  LDH release (%): 24.7388% and 23.725% and 24.6956% and 22.8802%
[8]; Fig. S3d, with MPP+, 0.1 µM
  LDH release (%): 43.0575% and 41.9759% and 41.8986%
[8]; Fig. S3d, with MPP+, 0.5 µM
  LDH release (%): 40.7398% and 41.2806% and 41.0489%
[8]; Fig. S3d, with MPP+, 1 µM
  LDH release (%): 39.0016% and 38.0746% and 37.5724%
[8]; Fig. S3d, with MPP+, 5 µM
  LDH release (%): 38.2677% and 37.7656% and 37.302%
[8]; Fig. S3d, with MPP+, 10 µM
  LDH release (%): 35.5638% and 36.4136% and 37.4179%
[8]; MN9D cells, MPP+-induced cytotoxicity
  concentration of maximal efficiency, times lower than CQ: ~ 20 times
